Measurements reported in US8753570B2, “Structure, synthesis, and applications for oligo phenylene ethynylenes” (STC.UNM, priority 2008, dated 2014).

Columns and labels:
[1] = Solubility in water and polar organic solvents; type: physicochemical; conditions: water and polar organic solvents such as methanol
Source text: (§1) While the synthetic steps are all straight-forward, those involving conversion of the diiodobenzene to 4-(4-iodophenyl)-2-methyl-3-butyn-2-ol occur with lower yields and the desired products must be separated from structurally similar byproducts. The alkylamino groups were attached in an early step but converted to the quaternary ammonium derivatives as the last step of the synthesis. The intermediates and final products were characterized by mass spectrometry and proton and carbon NMR. […]

[2] = Self-assembly / complex formation on carboxymethylcellulose (absorption, fluorescence); type: binding; conditions: two-state model, dimer assumed; estimated from absorbances
Source text: N-OPE:CMC complexes can be formed by adding small aliquots of CMC to aqueous solutions containing the N-OPE compound. […] [N-OPE-1]=1.5×10^−5M. […] [N-OPE-2]=1.5×10^−5 and [CMC]=0-4.2×10^−5M. Both excitation and emission slits are 2.5 nm. Excitation wavelength for N-OPE-1 is 355 nm and for N-OPE-2 is 375 nm. For both N-OPEs there are several isosbestic points in the absorption spectra as the two bands in the absorption for water alone are replaced by a spectrum of the N-OPE:CMC having two bands at longer wavelength. For both N-OPEs the fluorescence also undergoes a red shift and increase in intensity as aliquots of CMC are added, finally leveling off at moderate concentrations (greater than 1 mM) of CMC. […]
Binding constants (assuming that an N-OPE dimer is formed in each case) can be estimated from a determination of the individual absorbances of the two species following a treatment for a similar two-state system developed by Pasternack and co-workers. […]
Self-assembly is not limited solely to the non-symmetrical N-OPE compounds. […] The changes that occur for S-OPE-1 (H), N-OPE-1 and S-OPE-1 (COOEt) (sharp, red shifted absorption spectra, isosbestic points maintained throughout the CMC addition and red-shifted fluorescence) are consistent with an extension of effective conjugation for the oligomers on the carboxylate decorated surface of the CMC.

[3] = Nanosecond transient absorption spectroscopy (triplet state lifetime); type: physicochemical; conditions: aqueous solution
Source text: (§2) The spectra are concentration independent in the micromolar concentration range and there is a small red shift in the series: S-OPE-1 (H), N-OPE-1=S-OPE-1 (COO—), S-OPE-1 (COOEt). […] Furthermore, we have also synthesized and carried out studies of S-OPE-1 (x) where x=NH2, COCH3, both of these compounds show similar absorption spectra to that of S-OPE-1 (COOEt). The fluorescence of all four compounds shown in Table 2 is strong in methanol and there is little variation in fluorescence efficiency among the different substituted derivatives. However there is a significant variation in the fluorescence efficiencies in aqueous solution ranging from 0.02 for S-OPE-1 (COOEt) to 0.80 for S-OPE-1 (H). […] Clearly the ester groups in N-OPE-1 and S-OPE-1 (COOEt) must play a major role in a solvent-dependent process which deactivates the excited singlet of the oligomers in water. Nanosecond transient absorption spectroscopy was carried out on the OPEs in order to monitor the triplet states. […] The transient lifetimes and spectra are consistent with a triplet state assignment. The 1max of triplet-triplet absorption shifts from 518 nm to 569 nm following the extent of conjugation: S-OPE1-H (518 nm), N-OPE-1 (533 nm), S-OPE-1 (COO—) (557 nm), then S-OPE-1 (COOEt) (569 nm). The apparent triplet yields decrease in the order of S-OPE-1 (H)>S-OPE-1 (COO—)>>N-OPE-1>>S-OPE-1 (COOEt). The triplet lifetimes follow a similar trend as the triplet yield (Table 2).

[4] = Fluorescence quantum yields and fluorescence lifetimes in water and methanol; type: physicochemical; conditions: for φf in CH3OH / φf in H2O / τ (ns): Table 2; for τ (ns): fluorescence lifetime; for fluorescence quantum efficiency: in water, quinine sulfate standard; for Φf / τf (ns): Table 1
Source text: as §1
The absorption and fluorescence in methanol occur at very similar wavelengths. In both solvents there is no concentration dependence of the spectra in the micromolar range and it seems likely that in both solvents the N-OPE are monomeric. […] Fluorescent lifetimes in water are correspondingly shorter than in methanol.
Three symmetrical molecules, S-OPE-1 (H), S-OPE-1 (COOEt) and S-OPE-1 (COO—) show similar two-banded absorption spectra in water and methanol.
as §2

[5] = test system: Pseudomonas aeruginosa Strain PAO1; assay: Dark and light activated biocidal activity; type: cell-based; conditions: for biocidal activity: in solution and attached to surfaces; for light activated biocidal activity: short term irradiation with near ultraviolet light
Source text: The OPEs described herein have been synthesized and studied as dark and light activated biocides towards a Gram negative bacterium, Pseudomonas aeruginosa Strain PAO1. […] N-OPE-1 has been attached to surfaces by covalent linkage. This has been accomplished for both micron sized glass beads and glass slides.

[6] = exposed to bacteria in the dark, up to one hour
[7] = suspensions of Pseudomonas, much slower than light-activated

SMILES	τTA (μs) [3]	φf in CH3OH [4]	φf in H2O [4]	τ (ns) ([4]; column after φf in CH3OH)	τ (ns) ([4]; column after φf in H2O)	dark biocidal activity [5, 6]	biocidal activity [5]	light activated biocidal activity [5]	further results
CCOC(=O)c1ccc(C#Cc2cc(OCCC[N+](C)(C)C)c(C#Cc3ccccc3)cc2OCCC[N+](C)(C)C)cc1.[Cl-].[Cl-] [N-OPE-1]	107 μs	0.68	0.15	1.6 ns	1.5 ns	relatively inactive	active biocides both in solution and attached to surfaces	active as a biocide	solubility [1]: readily soluble in water and polar organic solvents such as methanol; binding constant K, CMC:(N-OPE)2 [2]: less accurate and slightly lower; fluorescence quantum efficiency [4]: ~15%; Φf ([4]; solvent H2O): 0.147; τf (ns) ([4]; solvent H2O): 0.78 ns; Φf ([4]; solvent Methanol): 0.68; τf (ns) ([4]; solvent Methanol): 1.57 ns
CCOC(=O)c1ccc(C#Cc2cc(OCCC[N+](C)(C)C)c(C#Cc3ccc(C#Cc4cc(OCCC[N+](C)(C)C)c(C#Cc5ccccc5)cc4OCCC[N+](C)(C)C)cc3)cc2OCCC[N+](C)(C)C)cc1.[Cl-].[Cl-].[Cl-].[Cl-] [N-OPE-2]						active against bacteria both in the dark and in the light	active biocides both in solution and attached to surfaces	active against bacteria both in the dark and in the light	solubility [1]: readily soluble in water and polar organic solvents such as methanol; fluorescence quantum efficiency [4]: over 1%; Φf ([4]; solvent H2O): 0.012; τf (ns) ([4]; solvent H2O): 0.37 ns; Φf ([4]; solvent Methanol): 0.68; τf (ns) ([4]; solvent Methanol): 0.92 ns
CCOC(=O)c1ccc(C#Cc2cc(OCCC[N+](C)(C)C)c(C#Cc3ccc(C#Cc4cc(OCCC[N+](C)(C)C)c(C#Cc5ccc(C#Cc6cc(OCCC[N+](C)(C)C)c(C#Cc7ccccc7)cc6OCCC[N+](C)(C)C)cc5)cc4OCCC[N+](C)(C)C)cc3)cc2OCCC[N+](C)(C)C)cc1.[Cl-].[Cl-].[Cl-].[Cl-].[Cl-].[Cl-] [N-OPE-3]						active against bacteria both in the dark and in the light	active biocides both in solution and attached to surfaces	active against bacteria both in the dark and in the light	
CCOC(=O)c1ccc(C#Cc2cc(OCCC[N+](C)(C)C)c(C#Cc3ccc(C(=O)OCC)cc3)cc2OCCC[N+](C)(C)C)cc1.[Cl-].[Cl-] [S-OPE-1 (COOEt)]	77 μs	0.75	0.023	1.4 ns	1.0 ns				fluorescence efficiency in aqueous solution [4]: 0.02
C[N+](C)(C)CCCOc1cc(C#Cc2ccc(C(=O)[O-])cc2)c(OCCC[N+](C)(C)C)cc1C#Cc1ccc(C(=O)[O-])cc1 [S-OPE-1 (COO—)]	136 μs	0.74	0.70	1.3 ns	1.5 ns				
C[N+](C)(C)CCCOc1cc(C#Cc2ccccc2)c(OCCC[N+](C)(C)C)cc1C#Cc1ccccc1.[Cl-].[Cl-] [S-OPE-1 (H)]	216 μs	0.82	0.80	1.4 ns	1.6 ns				fluorescence efficiency in aqueous solution [4]: 0.80; light-activated biocidal activity (rank) ([5]; suspensions of Pseudomonas): S-OPE-1 (x=H)<S-OPE-2 (x=H)
C[N+](C)(C)CCCOc1cc(C#Cc2ccc(C#Cc3cc(OCCC[N+](C)(C)C)c(C#Cc4ccccc4)cc3OCCC[N+](C)(C)C)cc2)c(OCCC[N+](C)(C)C)cc1C#Cc1ccccc1.[Cl-].[Cl-].[Cl-].[Cl-] [S-OPE-2 (x=H)]									light-activated biocidal activity (rank) ([5]; suspensions of Pseudomonas): S-OPE-1 (x=H)<S-OPE-2 (x=H); dark biocidal activity [5, 7]: observed
C[N+](C)(C)CCCOc1cc(C#Cc2ccc(C#Cc3cc(OCCC[N+](C)(C)C)c(C#Cc4ccc(C#Cc5cc(OCCC[N+](C)(C)C)c(C#Cc6ccccc6)cc5OCCC[N+](C)(C)C)cc4)cc3OCCC[N+](C)(C)C)cc2)c(OCCC[N+](C)(C)C)cc1C#Cc1ccccc1.[Cl-].[Cl-].[Cl-].[Cl-].[Cl-].[Cl-] [S-OPE-3 (x=H)]									dark biocidal activity [5, 7]: observed
